Measured values as given in PMC10974945, “Targeting MutT Homolog 1 (MTH1) for Breast Cancer Suppression by Using a Novel MTH1 Inhibitor MA−24 with Tumor-Selective Toxicity” (Pharmaceuticals, 2024).
Like-named read-outs stand apart in the source and are kept apart here. Values belong to the molecule of their own block, whether it stands above or below them.

What was measured:
4T1 breast cancer tumor = 4T1 breast cancer tumor model in Balb/c mice; details: for Ki67 expression / tumor cell proliferation in tumors / body weight compared to the control group: MA−24 60 mg/kg; for body weight compared to the control group: TH287 200 mg/kg i.p. every three days
Protocol: All animal experiments were carried out in accordance with a protocol approved by the Animal Ethics Committee of the China Pharmaceutical University. Female BALB/C mice were given food and water ad libitum. Approximately 7-week-old mice were injected subcutaneously with 2 × 10^5 4T1 cells in the left flank. When the mean tumor size reached 30~50 mm^3, vehicle (composed with 1% DMSO, 10% ethanol, 10% Chremophor EL, and 10% Tween-80, diluted with PBS), MTH1 inhibitor (MA−24 at 60 mg/kg or TH287 at 200 mg/kg), or 5-FU (30 mg/kg) was administered intraperitoneally every three days. Tumor size and body weights were measured twice weekly starting on the first day of treatment. Moreover, to minimize animal suffering, euthanasia by cervical dislocation was performed when the maximum diameter of the tumors exceeded 1 cm.

MTH1 [1] = molecular target: T1, MTH1 (Homo sapiens, UniProt P36639); assay: MTH1 enzymatic inhibition, malachite green colorimetric assay; format: biochemical
Protocol: MTH1, inorganic pyrophosphatase, and dGTP (Thermo Fisher Scientific, Waltham, MA, USA) were diluted in assay buffer containing 100 mM Tris-acetate at pH 8.0, 40 mM NaCl, 10 mM Mg-acetate, 0.005% Tween 20, and 1 mM DTT. Briefly, serial dilutions of compounds were dissolved in assay buffer; meanwhile, MTH1 was diluted to 4 μg/mL, and then these two solutions were mixed and filled with buffer to 186 µL. After 15 min incubation at 25 °C, 10 µL dGTP (final concentration […]) and 4 µL inorganic pyrophosphatase (final concentration 0.2 U/mL) were added to start the reaction. The reaction mixture was incubated with shaking for 45 min at 25°C. Finally, 50 µL of malachite green assay reagent was added and incubated with shaking for 15 min at 25 °C. The absorbance of the assay plate was read at 630 nm using a Multiskan GO Microplate Spectrophotometer (Thermo Fisher Scientific, Waltham, MA, USA) and IC50 values were calculated using GraphPad Prism 9.5.1 Software.

MCF−7 cells [2] = assay: MTT cell viability/proliferation assay, MCF−7; format: cell-based; details: Homo sapiens; for IC50: read-out: IC50 against MCF−7 cell proliferation (mean ± SD); for inhibition at 200 µM: compound concentration 200 μM, read-out: Inhibition (%) (Mean ± SD) of MCF−7 cell proliferation
Protocol: (§1) Human breast cancer cell lines (MCF-7: ER+, PR+, HER2-, EGFR+, MB-MDA-MB-231: […] All cells were cultured in suitable medium supplemented with 10% fetal bovine serum (FBS; […] Biotechnology Co., Ltd., Hangzhou, China), 100 U/mL penicillin, and 100 μg/mL streptomycin (Invitrogen, Carlsbad, CA, USA) at 37 °C in 5% CO2. MCF-7, MB-MDA-MB-231, HEK-293F, and HUVEC were grown in Dulbecco's modified Eagle's medium (DMEM; […] Subsequently, cells were treated with compound or vehicle (maximum 0.3% DMSO). After 48 h, cells were treated with MTT; the absorbance of the assay plate was read at 490 nm using a Multiskan GO Microplate Spectrophotometer (Thermo Fisher Scientific, Waltham, MA, USA).

MDA-MB-231 cells = assay: MTT cell viability/proliferation assay, MDA-MB-231; format: cell-based; details: Homo sapiens, read-out: IC50 on MDA-MB-231 proliferation (mean ± SD)
Protocol: as §1

4T1 cells = assay: MTT cell viability/proliferation assay, 4T1; format: cell-based, murine; details: Mus musculus, read-out: IC50 on 4T1 proliferation (mean ± SD)
Protocol: as §1

HUVEC cells = assay: MTT cell viability/proliferation assay, HUVEC (immortalized); format: cell-based; details: Homo sapiens, 48 h, read-out: IC50 on HUVEC proliferation (mean ± SD)
Protocol: as §1

HEK-293F cells = assay: MTT cell viability/proliferation assay, HEK-293F (immortalized); format: cell-based; details: HEK293F, 48 h, read-out: IC50 on HEK-293F proliferation (mean ± SD)
Protocol: as §1

CHO cells = assay: MTT cell viability/proliferation assay, CHO (immortalized); format: cell-based; details: Cricetulus griseus, 48 h, read-out: IC50 on CHO proliferation (mean ± SD)
Protocol: as §1

MTH1 [3] = molecular target: T1, MTH1; assay: Kinetic analysis of MTH1 inhibition (reciprocal plot); format: biochemical; details: consistent 1/Vmax
MTH1 [4] = molecular target: T1, MTH1; assay: Target engagement by cellular thermal shift assay (CETSA) in MCF−7 cells; format: cell-based; details: 50 μM, 4.5 h, 42 to 75 °C
Protocol: MCF−7 cells cultured in 6-well plates for 24 h were exposed to vehicle (0.5% DMSO) or 50 μM TH287 or MA−24 for 4.5 h. After trypsinization cells were detached, spun down and resuspended in PBS. Eight equational cells were heated for 3 min from 42 to 75 °C, and then lysed using RIPA lysis buffer. Western blot analysis was used to analyze the amounts of stabilized MTH1 using the MTH1 antibody.

MCF−7 cells [5] = assay: Western blot of apoptosis and p38 MAPK proteins in MCF−7 cells; format: cell-based, human; details: for expression of p38: high concentrations
Excerpt: Total protein was obtained using RIPA lysis buffer (Beyotime Biotechnology, Shanghai, China) supplemented with phenylmethanesulfonyl fluoride (Beyotime Biotechnology, Shanghai, China), separated by SDS-PAGE, and transferred to the PVDF membrane by electroblotting (Bio-Rad, Hercules, CA, USA) followed by blocking with 5% milk in TBST. MTH1 antibody (Cat.No.ab200832, Abcam, Eugene, OR, USA), β-actin antibody (Cat.No.ab8227; Abcam, Eugene, OR, USA), ccaspae-3 antibody (Cat.No.14220, CST, Boston, USA), cleaved caspase-3 antibody (Asp175) (Cat.No.9664, CST, Boston, MA, USA), cleaved PARP antibody (Asp214) (Cat.No.95696, CST, Boston, MA, USA), p38 (Cat.No.9212, CST, Boston, MA, USA), and phospho-p38 MAPK (Thr180/Tyr182) (Cat.No.9211, CST, Boston, MA, USA) were used at a dilution of 1:1000–1:5000. Upon addition of primary and HRP-conjugated secondary antibodies, blots were detected using an ECL substrate (Thermo Fisher Scientific, Waltham, MA, USA) and the Tanon 5200 Chemiluminescent Imaging System (Tanon, Shanghai, China).

[6] = design: method as in PMID 25459754; details: intraperitoneal injection, cited from earlier work
[7] = design: method as in PMID 24695224; details: in vitro studies; cited from earlier work
MCF−7 cells [8] = assay: Alkaline comet assay in MCF−7 cells; format: cell-based, human; details: 10 μM, 2 days
Protocol: MCF−7 cells (300,000 cells) were plated in 6-well plates and incubated for 24 h at 37 °C and 5% CO2. Subsequently, cells were treated with a compound (10 μM MA−24 and TH287) or vehicle (0.1% DMSO) for 2 days or with 150 μM for 10 min on ice. Cells were harvested as above. After washing twice with PBS, cells were re-suspended in PBS. Then, the 30 μL cell suspension was mixed with 150 µL 1.2% low-melting agarose that was maintained at 37 °C. The mixture was layered onto pre-warmed (37 °C) agarose-coated glass slides. The slides were kept on ice for 10 min and incubated in lysis buffer (10 mM Tris pH 7.7, 2.5 M NaCl, 0.1 M EDTA, 1% DMSO, and 1% Triton X-100) at 4 °C overnight in the dark. Slides were washed twice with enzyme reaction buffer (40 mM HEPES pH 8.0, 0.1 M KCl, 0.5 mM EDTA, and 0.2 mg/mL BSA) and incubated with Fpg […] (8 U/mL, New England Biolabs, Shanghai, China) at 37 °C for 45 min. Slides were washed once with enzyme reaction buffer and incubated in alkaline electrophoresis buffer (50 mM NaOH, 1 mM EDTA, and 1% DMSO) for 20 min. […] Images were acquired with a fluorescence microscope (Olympus Corporation, Tokyo, Japan) and quantified using Comet Score software, Version 1.5. At least 100 comets per sample were analyzed. Tail moment is calculated as the percentage of DNA in the tail multiplied by the tail length.

[9] = 5-FU 30 mg/kg i.p. every three days, 4T1 tumor
[10] = malachite green staining assay, dGTP substrate, read-out: IC50 to MTH1 (mean ± SD)

SMILES: O=c1[nH]cc(F)c(=O)[nH]1 [5-FU, 5-fluorouracil]
tumor growth inhibition rate (4T1 breast cancer tumor; 30 mg/kg intraperitoneally every three days, 4T1 tumor): 81.9%
toxicity: mouse mortality (4T1 breast cancer tumor; 5-FU 30 mg/kg i.p. every three days): mouse mortality starting from the 16th day of treatment
Ki67 expression / tumor cell proliferation in tumors (4T1 breast cancer tumor; [9]): inhibitory effect on tumor cell proliferation

IC50 (MTH1 [1]; [10]): 0.01374 ± 0.0001 µM
SMILES: CNc1cc(NCCc2ccc(F)cc2)nc(N)n1 [MA−25]
IC50 (MCF−7 cells [2]; MCF7, MTT assay, 48 h): 82.3 ± 1.02 µM
inhibition at 200 µM (MCF−7 cells [2]; MCF7, MTT assay): 100 ± 0.1%

SMILES: CNc1cc(-c2cccc(Cl)c2Cl)nc(N)n1 [TH287, reference compound]
IC50 (MTH1 [1]): 0.00316 ± 3e-05 µM
IC50 (MCF−7 cells [2]; MCF7, 48 h): 3.55 ± 0.27 µM
IC50 (MDA-MB-231 cells; MDA-MB-231, 48 h): 1.92 ± 0.34 µM
IC50 (4T1 cells; 4T1, 48 h): 5.9 ± 1.02 µM
IC50 (HUVEC cells): ≥ 25 µM
IC50 (HEK-293F cells): ≥ 25 µM
IC50 (CHO cells): ≥ 25 µM
tumor growth inhibition rate (4T1 breast cancer tumor; 200 mg/kg intraperitoneally every three days, 4T1 tumor): 20.4%
body weight compared to the control group (4T1 breast cancer tumor): no statistically significant differences
type of inhibition on MTH1 with respect to dGTP (MTH1 [3]): competitive inhibition type
thermal stabilization of MTH1 (CETSA) (MTH1 [4]): increase the thermal stability of the MTH1 protein
expression of p38 (MCF−7 cells [5]): significantly reduce the expression of p38
blood drug concentration at 2, 3, and 4 h ([6]; 5mg/kg, 2, 3, and 4 h): below the detection limit
blood drug concentration at 1 h ([6]; 5mg/kg, 1 h): 1000 nM
stability in vitro compared to TH588 [7]: poorer stability

SMILES: CNc1cc(NCCc2ccc(C)cc2)nc(N)n1 [MA−24]
IC50 (MTH1 [1]; [10]): 0.0104 ± 0.00028 µM
IC50 (MCF−7 cells [2]; MCF7, MTT assay, 48 h): 23.9 ± 0.95 µM
inhibition at 200 µM (MCF−7 cells [2]; MCF7, MTT assay): 99.6 ± 0.4%
IC50 (MDA-MB-231 cells; MDA-MB-231, MTT assay, 48 h, cancer cell line): 48.4 ± 0.68 µM
IC50 (4T1 cells; 4T1, MTT assay, 48 h, cancer cell line): 14.8 ± 1.42 µM
IC50 (HUVEC cells; MTT assay, immortalized cells): ≥ 75 µM
IC50 (HEK-293F cells; MTT assay, immortalized cells): ≥ 75 µM
IC50 (CHO cells; MTT assay, immortalized cells): ≥ 75 µM
tumor growth inhibition rate (4T1 breast cancer tumor; 60 mg/kg intraperitoneally every three days, 4T1 tumor): 61.8%
lung metastasis (4T1 breast cancer tumor; MA−24 60 mg/kg i.p. every three days, 4T1 tumor): reduced lung metastasis
Ki67 expression / tumor cell proliferation in tumors (4T1 breast cancer tumor; [9]): moderate reduction in Ki67 expression
body weight compared to the control group (4T1 breast cancer tumor): no statistically significant differences
type of inhibition on MTH1 with respect to dGTP (MTH1 [3]): competitive inhibition type
thermal stabilization of MTH1 (CETSA) (MTH1 [4]): prominent thermal stabilization
DNA strand breaks (comet assay) (MCF−7 cells [8]): significantly increased DNA strand breaks
expression of cleaved-caspase 3 and cleaved PARP (MCF−7 cells [5]; 30 μM): upregulation of cleaved-caspase 3 and cleaved PARP
expression of p38 (MCF−7 cells [5]): significantly reduce the expression of p38
